Data on three molecules can be found in ChEMBL document CHEMBL6120956, “Discovery of a Potent, Orally Active, and Long-Lasting P2X7 Receptor Antagonist as a Preclinical Candidate for Delaying the Progression of Chronic Kidney Disease” (J Med Chem, 2024).

In one data set the target is T1, P2X purinoceptor 7 (Mus musculus, UniProt Q9Z1M0).
T1 sequence (Q9Z1M0 whole entry): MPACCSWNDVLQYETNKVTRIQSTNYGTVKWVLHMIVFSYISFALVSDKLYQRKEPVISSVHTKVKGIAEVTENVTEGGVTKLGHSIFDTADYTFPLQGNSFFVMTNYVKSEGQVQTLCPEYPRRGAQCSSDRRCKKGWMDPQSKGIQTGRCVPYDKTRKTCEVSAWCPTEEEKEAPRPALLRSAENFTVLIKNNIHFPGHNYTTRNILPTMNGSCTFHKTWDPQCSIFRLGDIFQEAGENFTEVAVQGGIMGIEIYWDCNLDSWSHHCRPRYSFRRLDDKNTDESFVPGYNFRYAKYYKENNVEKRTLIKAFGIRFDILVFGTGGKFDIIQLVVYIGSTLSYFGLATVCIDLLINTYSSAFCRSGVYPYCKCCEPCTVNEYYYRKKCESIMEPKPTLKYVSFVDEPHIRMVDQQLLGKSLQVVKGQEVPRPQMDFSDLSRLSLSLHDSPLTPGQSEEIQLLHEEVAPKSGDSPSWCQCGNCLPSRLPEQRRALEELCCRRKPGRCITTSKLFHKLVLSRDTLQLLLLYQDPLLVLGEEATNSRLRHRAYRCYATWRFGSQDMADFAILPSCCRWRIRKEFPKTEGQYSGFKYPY
In words: Antagonist activity against mouse P2X7 receptor expressed in ATP-stimulated HEK293 cells assessed as influx of PI by fluorescence dye uptake assay relative to control. The data set is classed as cell-based.

A short description of data set [1]: Metabolic stability in human liver microsomes assessed as clearance. The data set is classed as ADME, Microsome. Particulars: read-out: CLH. (In general: Liver microsomes are a subcellular fraction often used to study metabolism.)
Data set [2] is described as follows: Metabolic stability in human liver microsomes assessed as half life. The data set is classed as ADME, Microsome.
Data set [3] in a line: Metabolic stability in mouse liver microsomes assessed as clearance. The format is ADME, Microsome. The note with it: read-out: CLH.
A short description of data set [4]: Metabolic stability in mouse liver microsomes assessed as half life. The format is ADME, Microsome.
Data set [5] in a line: AUC (0 to t) in male BALB/c mouse at 10 mg/kg, po single administration measured upto 72 hrs by LC-MS/MS analysis. The format is ADME, organism-based. Particulars: in vivo.
Data set [6] can be described thus: Clearance in male BALB/c mouse at 10 mg/kg, po single administration measured upto 72 hrs by LC-MS/MS analysis. The data set is classed as ADME, organism-based. The note with it: in vivo.
A short description of data set [7]: Cmax in male BALB/c mouse at 10 mg/kg, po single administration measured upto 72 hrs by LC-MS/MS analysis. The data set is classed as ADME, organism-based. The note with it: in vivo.
The nature of data set [8]: Half life in male BALB/c mouse at 10 mg/kg, po single administration measured upto 72 hrs by LC-MS/MS analysis. The format is ADME, organism-based. Particulars: in vivo.
Data set [9] can be described thus: Tmax in male BALB/c mouse at 10 mg/kg, po single administration measured upto 72 hrs by LC-MS/MS analysis. The data set is classed as ADME, organism-based. The note with it: in vivo.
A short description of data set [10]: Stability in Balb/c mouse plasma measured upto 8 hrs. The format is ADME, cell-free.
The nature of data set [11]: Plasma protein binding in plasma (unknown origin) at 10 uM measured after 6 hrs incubation by LC-MS/MS analysis. The data set is classed as ADME, cell-free. The note with it: read-out: PPB (converted).
The next data set concerns the target CYP2C9 (Homo sapiens, UniProt P11712). As to the kind of experiment: Inhibition of CYP2C9 in human liver microsomes assessed as compound remaining at 1 uM measured after 2 hrs incubation by LC-MS/MS analysis. The data set is classed as ADME, Microsome. Particulars: read-out: Activity.
The target of another data set is T2, CYP1A2 (Homo sapiens, UniProt P05177).
T2 sequence (P05177 whole entry): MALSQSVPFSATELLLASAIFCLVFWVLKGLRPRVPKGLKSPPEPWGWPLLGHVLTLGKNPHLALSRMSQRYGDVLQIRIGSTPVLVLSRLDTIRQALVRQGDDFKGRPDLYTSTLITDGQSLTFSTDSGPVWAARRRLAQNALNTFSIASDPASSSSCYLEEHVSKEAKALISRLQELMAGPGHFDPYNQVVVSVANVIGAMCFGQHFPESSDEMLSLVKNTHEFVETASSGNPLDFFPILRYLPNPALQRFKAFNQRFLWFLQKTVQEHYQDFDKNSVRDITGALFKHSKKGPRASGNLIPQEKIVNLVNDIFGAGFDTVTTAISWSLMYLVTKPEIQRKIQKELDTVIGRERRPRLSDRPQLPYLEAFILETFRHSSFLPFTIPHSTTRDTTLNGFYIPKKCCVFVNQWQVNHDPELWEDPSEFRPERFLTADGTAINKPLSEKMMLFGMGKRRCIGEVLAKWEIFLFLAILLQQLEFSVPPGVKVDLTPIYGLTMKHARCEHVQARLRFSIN
As to the kind of experiment: Inhibition of CYP1A2 in human liver microsomes assessed as compound remaining at 1 uM measured after 2 hrs incubation by LC-MS/MS analysis. The data set is classed as ADME, Microsome. Particulars: read-out: Activity.

For a further data set, the target named is T3, CYP2A6 (Homo sapiens, UniProt P11509).
T3 sequence (P11509 whole entry): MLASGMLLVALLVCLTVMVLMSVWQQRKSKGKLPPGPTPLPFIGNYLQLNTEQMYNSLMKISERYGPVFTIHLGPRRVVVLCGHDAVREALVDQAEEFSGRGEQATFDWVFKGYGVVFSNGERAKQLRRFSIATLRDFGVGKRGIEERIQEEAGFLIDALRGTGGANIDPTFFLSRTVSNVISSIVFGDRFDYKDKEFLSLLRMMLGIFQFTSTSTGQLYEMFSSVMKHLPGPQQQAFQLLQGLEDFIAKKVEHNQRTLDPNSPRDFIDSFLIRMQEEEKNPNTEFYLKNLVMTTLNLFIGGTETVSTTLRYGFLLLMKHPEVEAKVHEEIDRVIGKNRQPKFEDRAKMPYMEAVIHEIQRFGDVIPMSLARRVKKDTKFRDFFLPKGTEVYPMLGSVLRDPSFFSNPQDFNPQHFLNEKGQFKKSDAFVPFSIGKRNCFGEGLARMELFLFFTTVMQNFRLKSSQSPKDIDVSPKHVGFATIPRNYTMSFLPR
As to the kind of experiment: Inhibition of CYP2A6 in human liver microsomes assessed as compound remaining at 1 uM measured after 2 hrs incubation by LC-MS/MS analysis. The data set is classed as ADME, Microsome. Particulars: read-out: Activity.

The target of a further data set is CYP2C19 (Homo sapiens, UniProt P33261). As to the kind of experiment: Inhibition of CYP2C19 in human liver microsomes assessed as compound remaining at 1 uM measured after 2 hrs incubation by LC-MS/MS analysis. The data set is classed as ADME, Microsome. Particulars: read-out: Activity.
The next data set concerns the target CYP2D6 (Homo sapiens, UniProt P10635). As to the kind of experiment: Inhibition of CYP2D6 in human liver microsomes assessed as compound remaining at 1 uM measured after 2 hrs incubation by LC-MS/MS analysis. The format is ADME, Microsome. The note with it: read-out: Activity.
Another data set addresses CYP2E1 (Homo sapiens, UniProt P05181). As to the kind of experiment: Inhibition of CYP2E1 in human liver microsomes assessed as compound remaining at 1 uM measured after 2 hrs incubation by LC-MS/MS analysis. The data set is classed as ADME, Microsome. The note with it: read-out: Activity.
Another data set addresses CYP3A4 (Homo sapiens, UniProt P08684). In words: Inhibition of CYP3A4 in human liver microsomes assessed as compound remaining at 1 uM measured after 2 hrs incubation by LC-MS/MS analysis. The format is ADME, Microsome. Particulars: read-out: Activity.
Data set [12] has as its system HEK293. As to the kind of experiment: Cytotoxicity against HEK293 cells expressing human P2X7 receptor assessed as cell viability upto 2 uM measured after 24 hrs incubation by CCK8 assay. The format is toxicity, cell-based. Particulars: hek293, 24 h. For orientation: Tetrazolium assays rely on reduction of a dye to a coloured formazan, in cell work by metabolically active cells.

The subject of data set [13] is HEK293. In words: Cytotoxicity against HEK293 cells expressing mouse P2X7 receptor assessed as cell viability upto 2 uM measured after 24 hrs incubation by CCK8 assay. The format is toxicity, cell-based. The note with it: human, hek293, 24 h.
Data set [14] in a line: Toxicity in female C57BL/6 mouse assessed as decrease in body weight at 2 g/Kg measured for 2 to 6 days. The note with it: in vivo, 2000 mg/kg, time 2-6 day.
Data set [15] is described as follows: Toxicity in C57BL/6 mouse assessed as change in body weight at 2 g/Kg measured for 14 days. Particulars: in vivo, 2000 mg/kg, 336 h, time 14 day.
For data set [16], the target named is Voltage-gated inwardly rectifying potassium channel KCNH2 (Homo sapiens, UniProt Q12809). As to the kind of experiment: Inhibition of hERG. The data set is classed as toxicity. A general note: hERG is a cardiac potassium channel; its block is linked to QT prolongation.
Sequence of Voltage-gated inwardly rectifying potassium channel KCNH2 (Q12809 whole entry): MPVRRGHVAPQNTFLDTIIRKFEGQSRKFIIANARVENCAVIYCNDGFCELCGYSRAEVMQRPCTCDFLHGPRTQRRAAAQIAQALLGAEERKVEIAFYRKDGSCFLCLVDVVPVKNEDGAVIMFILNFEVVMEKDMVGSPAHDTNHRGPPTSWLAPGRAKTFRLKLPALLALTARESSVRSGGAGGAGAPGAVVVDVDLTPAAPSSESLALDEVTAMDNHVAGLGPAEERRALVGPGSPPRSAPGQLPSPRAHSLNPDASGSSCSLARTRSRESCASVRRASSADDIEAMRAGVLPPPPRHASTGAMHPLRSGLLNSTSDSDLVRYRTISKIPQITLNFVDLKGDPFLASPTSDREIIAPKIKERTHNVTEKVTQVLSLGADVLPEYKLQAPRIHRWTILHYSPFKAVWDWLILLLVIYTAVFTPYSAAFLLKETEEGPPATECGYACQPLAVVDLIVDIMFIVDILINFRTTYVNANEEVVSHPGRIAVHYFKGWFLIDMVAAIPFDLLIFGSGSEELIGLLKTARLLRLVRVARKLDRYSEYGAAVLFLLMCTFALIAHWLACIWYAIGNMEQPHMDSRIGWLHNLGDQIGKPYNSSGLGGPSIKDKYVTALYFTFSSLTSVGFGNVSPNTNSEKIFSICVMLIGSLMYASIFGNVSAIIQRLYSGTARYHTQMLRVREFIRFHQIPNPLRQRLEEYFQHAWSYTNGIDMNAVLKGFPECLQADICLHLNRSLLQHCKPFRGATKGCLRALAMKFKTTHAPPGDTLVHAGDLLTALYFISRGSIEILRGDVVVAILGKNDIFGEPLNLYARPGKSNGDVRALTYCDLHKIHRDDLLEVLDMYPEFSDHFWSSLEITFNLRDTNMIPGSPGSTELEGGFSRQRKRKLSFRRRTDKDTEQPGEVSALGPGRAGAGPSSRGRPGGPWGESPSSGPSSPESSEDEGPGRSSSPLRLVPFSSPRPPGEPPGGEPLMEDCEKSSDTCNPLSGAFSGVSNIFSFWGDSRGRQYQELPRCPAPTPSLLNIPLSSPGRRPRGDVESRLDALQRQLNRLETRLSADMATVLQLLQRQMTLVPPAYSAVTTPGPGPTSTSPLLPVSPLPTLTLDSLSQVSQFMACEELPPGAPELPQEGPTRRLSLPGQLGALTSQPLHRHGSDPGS

Sequence of CYP2C19 (P33261 whole entry): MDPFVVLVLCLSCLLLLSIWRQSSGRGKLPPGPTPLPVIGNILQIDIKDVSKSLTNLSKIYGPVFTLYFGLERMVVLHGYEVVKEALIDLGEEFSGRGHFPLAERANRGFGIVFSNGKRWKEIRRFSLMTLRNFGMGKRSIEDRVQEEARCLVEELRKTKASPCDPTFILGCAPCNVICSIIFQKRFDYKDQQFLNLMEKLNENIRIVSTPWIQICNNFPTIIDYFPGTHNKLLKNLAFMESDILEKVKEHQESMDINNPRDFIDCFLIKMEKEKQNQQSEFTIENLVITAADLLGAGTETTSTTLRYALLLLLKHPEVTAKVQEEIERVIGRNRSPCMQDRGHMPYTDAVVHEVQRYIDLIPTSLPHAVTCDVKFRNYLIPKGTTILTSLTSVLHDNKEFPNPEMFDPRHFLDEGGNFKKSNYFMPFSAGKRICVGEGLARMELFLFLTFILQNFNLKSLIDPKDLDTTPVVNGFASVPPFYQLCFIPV
Sequence of CYP2D6 (P10635 whole entry): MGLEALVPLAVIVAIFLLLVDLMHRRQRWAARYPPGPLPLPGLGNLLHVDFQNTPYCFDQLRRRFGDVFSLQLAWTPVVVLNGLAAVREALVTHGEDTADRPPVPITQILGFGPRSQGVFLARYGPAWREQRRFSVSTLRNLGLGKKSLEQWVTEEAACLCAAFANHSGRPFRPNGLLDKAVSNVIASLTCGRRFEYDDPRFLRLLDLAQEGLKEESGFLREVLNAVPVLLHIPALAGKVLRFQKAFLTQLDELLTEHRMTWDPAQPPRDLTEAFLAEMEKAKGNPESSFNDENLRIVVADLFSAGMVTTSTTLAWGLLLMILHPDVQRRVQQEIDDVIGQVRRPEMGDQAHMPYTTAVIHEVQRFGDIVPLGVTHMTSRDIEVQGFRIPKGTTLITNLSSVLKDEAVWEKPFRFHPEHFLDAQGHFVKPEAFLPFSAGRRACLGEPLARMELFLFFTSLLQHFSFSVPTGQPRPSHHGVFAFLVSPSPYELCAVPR
Sequence of CYP2E1 (P05181 whole entry): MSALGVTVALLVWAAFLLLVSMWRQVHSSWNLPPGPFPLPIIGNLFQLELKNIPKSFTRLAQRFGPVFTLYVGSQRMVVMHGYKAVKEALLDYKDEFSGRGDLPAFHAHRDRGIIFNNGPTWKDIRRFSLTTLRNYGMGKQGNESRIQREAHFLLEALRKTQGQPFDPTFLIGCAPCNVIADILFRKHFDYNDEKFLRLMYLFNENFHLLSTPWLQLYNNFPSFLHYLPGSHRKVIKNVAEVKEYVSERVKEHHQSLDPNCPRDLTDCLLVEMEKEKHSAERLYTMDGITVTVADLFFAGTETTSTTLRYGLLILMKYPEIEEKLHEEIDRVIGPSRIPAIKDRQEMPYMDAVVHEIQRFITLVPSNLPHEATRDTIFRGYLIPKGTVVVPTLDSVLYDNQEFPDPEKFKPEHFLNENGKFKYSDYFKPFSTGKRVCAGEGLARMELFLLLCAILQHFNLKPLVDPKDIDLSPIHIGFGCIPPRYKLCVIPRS
Sequence of CYP3A4 (P08684 whole entry): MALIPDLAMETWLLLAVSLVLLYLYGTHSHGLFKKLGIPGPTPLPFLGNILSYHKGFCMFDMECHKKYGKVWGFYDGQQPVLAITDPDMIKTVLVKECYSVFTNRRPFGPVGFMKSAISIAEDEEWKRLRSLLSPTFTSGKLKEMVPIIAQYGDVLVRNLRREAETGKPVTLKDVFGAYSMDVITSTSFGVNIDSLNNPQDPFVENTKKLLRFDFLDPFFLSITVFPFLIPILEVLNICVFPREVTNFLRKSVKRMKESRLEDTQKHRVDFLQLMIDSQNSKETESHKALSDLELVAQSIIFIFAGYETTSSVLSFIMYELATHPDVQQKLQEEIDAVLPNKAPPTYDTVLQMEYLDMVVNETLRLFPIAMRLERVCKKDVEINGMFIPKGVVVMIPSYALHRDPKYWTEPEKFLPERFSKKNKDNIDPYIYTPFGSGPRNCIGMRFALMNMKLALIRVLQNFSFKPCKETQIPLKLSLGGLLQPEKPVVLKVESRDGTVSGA
Sequence of CYP2C9 (P11712 whole entry): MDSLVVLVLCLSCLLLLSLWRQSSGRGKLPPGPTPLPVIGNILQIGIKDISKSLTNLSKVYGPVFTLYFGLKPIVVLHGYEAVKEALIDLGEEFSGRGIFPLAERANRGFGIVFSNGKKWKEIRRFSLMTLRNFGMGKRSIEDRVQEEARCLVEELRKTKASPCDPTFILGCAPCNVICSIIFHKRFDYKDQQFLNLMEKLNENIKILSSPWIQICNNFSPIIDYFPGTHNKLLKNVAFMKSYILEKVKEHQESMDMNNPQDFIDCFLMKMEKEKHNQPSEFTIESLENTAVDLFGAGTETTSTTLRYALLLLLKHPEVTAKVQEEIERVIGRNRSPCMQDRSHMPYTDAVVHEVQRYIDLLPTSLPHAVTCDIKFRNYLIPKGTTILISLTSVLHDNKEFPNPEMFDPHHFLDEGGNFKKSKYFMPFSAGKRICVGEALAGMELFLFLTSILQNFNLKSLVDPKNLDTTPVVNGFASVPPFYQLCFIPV

For `C[C@@H](NC(=O)c1cnc(-c2ccc(S(C)(=O)=O)cc2)s1)c1cn(-c2cc(C(F)(F)F)ccn2)nn1`, the IC50 (as a rule, the midpoint of a concentration-inhibition curve) at P2X purinoceptor 7 turned out to be 54.7 nM. Moreover, the CLint scaled in data set [1] and in [3] was under 12 mL/min/kg each time. The half-life (in general, how long it takes for the measured level to halve) is over 2 h in [2], over 2 h in data set [4] and 4.71 h in data set [8]. The AUC(0-t) (commonly exposure summed from dosing to a finite time, without extrapolation to infinity) at 72 h in data set [5] is 86.5 µg·h/mL. Besides, the CL/F (as a rule, the apparent clearance, not corrected for the fraction that reaches the circulation) in data set [6] is 2.17 mL/min/kg. In data set [7], the Cmax (in general, the maximum level reached in the sampled fluid or tissue) stood at 6900 ng/mL. Moreover, the Tmax (commonly the time from dosing to the highest level) in data set [9] amounted to 2.33 h. The Stability entry in [10] is “Stable”. Moreover, the fraction unbound at 6 h, 10 µM in [11] is 0.0213. In addition, the remaining at 2 h, 1 µM at CYP2C9, on CYP1A2, at CYP2A6, at CYP2C19, on CYP2D6 and on CYP2E1 was 84.2% throughout. In addition, at CYP3A4, the remaining at 2 h, 1 µM worked out at 84.2%.

Take `C[C@@H](NC(=O)c1csc(-c2ccc(S(C)(=O)=O)cc2)n1)c1cn(-c2cc(C(F)(F)F)ccn2)nn1`: on P2X purinoceptor 7, the IC50 turned out to be 168 nM. For the same molecule, the CLint scaled in data set [1] and in data set [3] was under 12 mL/min/kg throughout. Moreover, the half-life was over 2 h in data set [2], over 2 h in data set [4] and 6.6 h in data set [8]. Moreover, in data set [5], the AUC(0-t) at 72 h was determined as 103 µg·h/mL. Besides, the CL/F in data set [6] is 1.67 mL/min/kg. The molecule further gave a Cmax in [7] of 6610 ng/mL. The Tmax in [9] was 3 h. Also, the Activity entry in the data set on HEK293 [12] and with HEK293 [13] was “Non-toxic” in each case.

Regarding `C[C@H](NC(=O)c1cnc(-c2ccc(S(C)(=O)=O)cc2)s1)c1cn(-c2cc(C(F)(F)F)ccn2)nn1`, the IC50 at P2X purinoceptor 7 was 25.3 nM; in [16], over 30000 nM. For the same molecule, the CLint scaled in [1] and in [3] was under 12 mL/min/kg throughout. The half-life in [2] is over 2 h; in data set [4] it was over 2 h; in data set [8], 162 h. In [5], this molecule gave an area under the curve AUC(0-t) at 72 h of 1160 µg·h/mL. Also, the Cmax in [7] was 19800 ng/mL. Also, the Tmax in [9] was 24 h. The Stability entry in [10] is given as “Stable”. In addition, the fraction unbound at 6 h, 10 µM in data set [11] was 0.003. The remaining at 2 h, 1 µM at CYP2C9, on CYP1A2, on CYP2A6, at CYP2C19, on CYP2D6 and at CYP2E1 was 100% each time. Further, at CYP3A4, the remaining at 2 h, 1 µM was found to be 100%. Further, the Activity entry in data set [14] and in [15] was “Non-toxic” throughout.
